For this assay, the target named is T1, full-length human PKCι (Homo sapiens, UniProt P41743).
T1 construct: Recombinant, full-length human PKCι expressed in Sf21 insect cells is also commercially available; purchased; host or cells: Sf21 insect cells
T1 sequence (P41743 1-596): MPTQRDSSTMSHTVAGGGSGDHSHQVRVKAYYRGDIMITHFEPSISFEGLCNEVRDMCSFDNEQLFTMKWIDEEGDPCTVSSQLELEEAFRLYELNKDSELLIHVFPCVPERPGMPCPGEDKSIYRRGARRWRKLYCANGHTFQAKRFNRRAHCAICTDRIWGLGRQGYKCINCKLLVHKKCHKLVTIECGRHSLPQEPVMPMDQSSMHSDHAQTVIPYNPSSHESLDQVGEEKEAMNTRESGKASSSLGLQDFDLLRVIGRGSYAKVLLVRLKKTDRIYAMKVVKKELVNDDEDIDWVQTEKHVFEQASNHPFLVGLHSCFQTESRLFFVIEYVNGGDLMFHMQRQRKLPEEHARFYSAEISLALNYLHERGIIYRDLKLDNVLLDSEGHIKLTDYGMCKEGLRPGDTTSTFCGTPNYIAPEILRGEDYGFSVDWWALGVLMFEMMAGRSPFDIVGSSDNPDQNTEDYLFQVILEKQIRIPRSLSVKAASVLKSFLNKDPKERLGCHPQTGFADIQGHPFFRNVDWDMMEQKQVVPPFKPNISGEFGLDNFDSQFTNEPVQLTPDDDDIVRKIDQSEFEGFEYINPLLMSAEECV
Nature of the assay: PKCι IC50 IMAP assay, full-length PKCι at 150 μM ATP. The format is biochemical. Particulars: read-out: IC50 in IMAP assay against full length PKCi at 150 μM ATP. In a few lines: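 IMAP fluorescence polarisation (ex 485/em 530 nm) read-out; % inhibition set from no-compound (0%) and no-enzyme (100%) controls, IC50 from dose-response curve fit. Sf21-expressed full-length enzyme ~15 pM, 100 nM FAM peptide, ATP 150 μM (5× KM^APP), 60 min at RT.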

Each structure is given as a SMILES string. Some results are limits rather than exact numbers.

Our source for the IC50 values is US9914730B2, “Azaquinazoline inhibitors of Atypical protein Kinase C” (Ignyta, Inc., priority 2012, dated 2018).

On to `N#Cc1ccnc(Nc2cc(-c3nc(N4CC[C@@H](O)[C@@H](O)C4)c4c(C5CC5)cncc4n3)ccn2)c1` (stereo in doubt) [Example 488, 2-{4-[5-Cyclopropyl-4-((3S,4R)-3,4-dihydroxy-piperidin-1-yl)-pyrido[3,4-d]pyrimidin-2-yl]-pyridin-2-ylamino}-isonicotinonitrile], for which the IC50 is 100 to 1000 nM.

Turning to `O[C@H]1Cc2ccccc2[C@@H]1Nc1cc(-c2nc(N3CCNCC3)c3c(C4CC4)cncc3n2)ccn1` [Example 2141, (1S,2S)-1-[4-(5-Cyclopropyl-4-piperazin-1-yl-pyrido[3,4-d]pyrimidin-2-yl)-pyridin-2-ylamino]-indan-2-ol], the concentration for half-maximal inhibition (IC50) is under 100 nM.

As for `Fc1ccccc1Nc1cc(-c2nc(N3CCNCC3)c3c(Nc4ccccc4F)cncc3n2)ccn1` [Example 248, (2-Fluoro-phenyl)-{2-[2-(2-fluoro-phenylamino)-pyridin-4-yl]-4-piperazin-1-yl-pyrido[3,4-d]pyrimidin-5-yl}-amine], the IC50 was under 100 nM.

In the case of `Nc1cccc(-c2nccc3c(NC[C@@H](N)Cc4ccccc4)nc(-c4ccncc4)nc23)c1` [Example 109, N-[(2S)-2-amino-3-phenylpropyl]-8-(3-aminophenyl)-2-(pyridin-4-yl)pyrido[3,4-d]pyrimidin-4-amine], the IC50 fell in the range of 100 to 1000 nM.

Take `CN1Cc2ccc(Nc3cc(-c4nc(N5CCC(O)CC5)c5c(C6CC6)cncc5n4)ccn3)cc2C1` [Example 821, 1-{5-Cyclopropyl-2-[2-(2-methyl-2,3-dihydro-1H-isoindol-5-ylamino)-pyridin-4-yl]-pyrido[3,4-d]pyrimidin-4-yl}-piperidin-4-ol]: the IC50 is under 100 nM.

On to `COCC(C)(C)c1cc2c(-c3nc(N4CCNCC4)c4c(C5CC5)cncc4n3)ccnc2[nH]1` [Example 2108, 5-Cyclopropyl-2-[2-(2-methoxy-1,1-dimethyl-ethyl)-1H-pyrrolo[2,3-b]pyridin-4-yl]-4-piperazin-1-yl-pyrido[3,4-d]pyrimidine], for which the IC50 was under 100 nM.

Turning to `Fc1ccc(Cl)c(Nc2cc(-c3nc(N4CCNCC4)c4c(C5CC5)cncc4n3)ccn2)c1` [Example 576, (2-Chloro-5-fluoro-phenyl)-[4-(5-cyclopropyl-4-piperazin-1-yl-pyrido[3,4-d]pyrimidin-2-yl)-pyridin-2-yl]-Amine], the IC50 is under 100 nM.

For the compound `COc1cncc2nc(-c3ccnc4[nH]ccc34)nc(N3CCNCC3)c12` [Example 1200, 5-Methoxy-4-piperazin-1-yl-2-(1H-pyrrolo[2,3-b]pyridin-4-yl)-pyrido[3,4-d]pyrimidine], the half-maximal inhibitory concentration (IC50) was under 100 nM.

Regarding `COCCN1CCN(c2nc(-c3ccnc(Nc4ccccc4)c3)nc3cncc(C4CC4)c23)CC1` [Example 661, (4-{5-Cyclopropyl-4-[4-(2-methoxy-ethyl)-piperazin-1-yl]-pyrido[3,4-d]pyrimidin-2-yl}-pyridin-2-yl)-phenyl-amine], the IC50 was in the range of 1000 to 10000 nM.

Turning to `COc1cncc2nc(-c3ccnc(Nc4ccc(-c5ccccc5)nc4)c3)nc(N3CCNCC3)c12` [Example 392, [4-(5-Methoxy-4-piperazin-1-yl-pyrido[3,4-d]pyrimidin-2-yl)-pyridin-2-yl]-(6-phenyl-pyridin-3-yl)-amine], the IC50 is under 100 nM.

As for `Fc1cc(F)c(Nc2cc(-c3nc(N[C@@H]4CCNC4)c4c(C5CC5)cncc4n3)ccn2)nc1F` [Example 2056, {5-Cyclopropyl-2-[2-(3,5,6-tritluoro-pyridin-2-ylamino)-pyridin-4-yl]-pyrido[3,4-d]pyrimidin-4-yl}-(R)-pyrrolidin-3-yl-amine], the IC50 was under 100 nM.

On to `c1cc(Nc2cc(-c3nc(N4CCCC4)c4c(C5CC5)cncc4n3)ccn2)cc(N2CCNCC2)c1` [Example 766, [4-(5-Cyclopropyl-4-pyrrolidin-1-yl-pyrido[3,4-d]pyrimidin-2-yl)-pyridin-2-yl]-(3-piperazin-1-yl-phenyl)-amine], for which the IC50 was 100 to 1000 nM.

As to `N[C@H](CNc1nc(-c2ccncc2)nc2c(-c3ccccc3Cl)nccc12)Cc1ccccc1` [Example 96, N-[(2S)-2-amino-3-phenylpropyl]-8-(2-chlorophenyl)-2-(pyridin-4-yl)pyrido[3,4-d]pyrimidin-4-amine], the IC50 lay in the range of 100 to 1000 nM.

Regarding `CC1CN(c2nc(-c3ccnc(Nc4nc(F)ccc4F)c3)nc3cncc(C4CC4)c23)CC(C)N1` (centres unmarked) [Example 763, {4-[5-Cyclopropyl-4-(3,5-dimethyl-piperazin-1-yl)-pyrido[3,4-d]pyrimidin-2-yl]-pyridin-2-yl}-(3,6-difluoro-pyridin-2-yl)-amine], the IC50 was under 100 nM.

Regarding `CN(c1nc(-c2ccnc(Nc3c(F)cccc3F)c2)nc2cncc(C3CC3)c12)C1CNC1` [Example 2029, Azetidin-3-yl-{5-cyclopropyl-2-[2-(2,6-difluoro-phenylamino)-pyridin-4-yl]-pyrido[3,4-d]pyrimidin-4-yl}-methyl-amine], the IC50 is under 100 nM.

`N#CC[C@H]1CN(c2nc(N3CCOCC3)nc3cncc(C4CC4)c23)CCN1` [Example 1018, [(S)-4-(5-Cyclopropyl-2-morpholin-4-yl-pyrido[3,4-d]pyrimidin-4-yl)-piperazin-2-yl]-acetonitrile]: the IC50 was under 100 nM.

Turning to `Fc1cccc(F)c1Nc1cc(-c2nc(N3CCNCC3)c3c(C4CC4)cnc(C4CC4)c3n2)ccn1` [Example 2189, [4-(5,8-Dicyclopropyl-4-piperazin-1-yl-pyrido[3,4-d]pyrimidin-2-yl)-pyridin-2 yl]-(2,6-difluoro-phenyl)-amine], the IC50 was in the range of 100 to 1000 nM.

For `FC(F)(F)c1cc2c(-c3nc(N4CCNCC4)c4c(C5CC5)cncc4n3)ccnc2[nH]1` [Example 1212], the IC50 was under 100 nM.

Consider `Fc1cc(-c2nc(N3CCNCC3)c3c(C4CC4)cncc3n2)ccn1` [Example 689, 5-Cyclopropyl-2-(2-fluoro-pyridin-4-yl)-4-piperazin-1-yl-pyrido[3,4-d]pyrimidine], for which the IC50 is under 100 nM.

As for `c1cc(-c2nc(N3CCNCC3)c3c(C4CC4)cncc3n2)cc(N[C@@H]2CCOC2)n1` [Example 509, [4-(5-Cyclopropyl-4-piperazin-1-yl-pyrido[3,4-d]pyrimidin-2-yl)-pyridin-2-yl]-(R)-tetrahydro-furan-3-yl-amine], the 50% inhibitory concentration (IC50) is under 100 nM.

Turning to `Fc1cc(F)c(Nc2cc(-c3nc(NC4CCNCC4)c4c(C5CC5)cncc4n3)ccn2)nc1F` [Example 2065, {5-Cyclopropyl-2-[2-(3,5,6-trifluoro-pyridin-2-ylamino)-pyridin-4-yl]-pyrido[3,4-d]pyrimidin-4-yl}-piperidin-4-yl-amine], the IC50 is under 100 nM.

As for `COc1ccc(Nc2cc(-c3nc(N4CCNCC4)c4c(C5CC5)cncc4n3)ccn2)cn1` [Example 547, [4-(5-Cyclopropyl-4-piperazin-1-yl-pyrido[3,4-d]pyrimidin-2-yl)-pyridin-2-yl]-(6-methoxy-pyridin-3-yl)-amine], the IC50 is under 100 nM.

With `c1ccc(C[C@@H]2CN(c3nc(-c4ccncc4)nc4cnccc34)CCN2)cc1` [Example 17, (3R)-3-benzyl-1-[2-(pyridin-4-yl)-pyrido[3,4-d]-pyrimidin-4-yl]-piperazine], the IC50 lay in the range of 1000 to 10000 nM.

Regarding `Cc1ccc(Nc2cc(-c3nc(N4CCNCC4)c4c(C5CC5)cncc4n3)ccn2)c(C)c1` [Example 573, [4-(5-Cyclopropyl-4-piperazin-1-yl-pyrido[3,4-d]pyrimidin-2-yl)-pyridin-2-yl]-(2,4-dimethyl-phenyl)-amine], the IC50 is under 100 nM.

Regarding `Fc1ccc(F)c(Nc2cc(-c3nc(N4CCNCC4)c4c(C5CC5)cncc4n3)ccn2)c1F` [Example 266, [4-(5-Cyclopropyl-4-piperazin-1-yl-pyrido[3,4-d]pyrimidin-2-yl)-pyridin-2-yl]-(2,3,6-trifluoro-phenyl)-amine], the IC50 is under 100 nM.

Take `OCCN1CCN(c2nc(-c3ccnc(Nc4ccccc4)c3)nc3cncc(C4CC4)c23)CC1` [Example 606, 2-{4-[5-Cyclopropyl-2-(2-phenylamino-pyridin-4-yl)-pyrido[3,4-d]pyrimidin-4-yl]-piperazin-1-yl}-ethanol]: the IC50 lay in the range of 100 to 1000 nM.

Take `c1cc(-c2nc(N3CCNCC3)c3c(C4CC4)cncc3n2)cc(Nc2nc3cc(C4CC4)ccn3n2)n1` [Example 831, [4-(5-Cyclopropyl-4-piperazin-1-yl-pyrido[3,4-d]pyrimidin-2-yl)-pyridin-2-yl]-(7-cyclopropyl-[1,2,4]triazolo[1,5-a]pyridin-2-yl)-amine]: the IC50 is under 100 nM.

`CN1CCN(c2cccc(Nc3cc(-c4nc(N5C[C@H](O)[C@@H](O)C5)c5c(C6CC6)cncc5n4)ccn3)c2)CC1` [Example 793, (3S,4S)-1-(5-Cyclopropyl-2-{2-[3-(4-methyl-piperazin-1-yl)-phenylamino]-pyridin-4-yl}-pyrido[3,4-d]pyrimidin-4-yl)-pyrrolidine-3,4-diol]: the IC50 was 100 to 1000 nM.

Take `CC(=O)Nc1cc(-c2nc(N3CCNCC3)c3c(Cl)cncc3n2)ccn1` [Example 251, N-[4-(5-Chloro-4-piperazin-1-yl-pyrido[3,4-d]pyrimidin-2-yl)-pyridin-2-yl]-acetamide]: the IC50 was in the range of 100 to 1000 nM.
